Compound in the experiment: Nc1ncnc2c1ncn2[C@@H]1O[C@H](COP(=O)(O)OP(=O)(O)OP(=O)(O)O)[C@@H](O)[C@H]1O [adenosine triphosphate]
In words: pEC50 of ATP-induced change in protein thermal stability (2D-TPP). The method in brief:
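Crude Jurkat lysate was exposed to five concentrations, vehicle among them, for 10 min at room temperature, then heated for 3 min at 12 temperatures between 42 and 63.9 °C and treated with NP40 and benzonase for 60 min at 4 °C. Soluble protein remaining after ultracentrifugation was measured by TMT LC-MS/MS, and fold changes relative to vehicle at each temperature were median-normalised. pEC50 values come from dose-response fits made per replicate across adjacent temperature pairs, with hits called under permutation-based false discovery rate control. Three independent experiments were run.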
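Note: lysate dosed with Na-ATP at 0 0.005 0.05 0.5 and 2 mM.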

Chain of UniProt P35626 (P35626 whole entry): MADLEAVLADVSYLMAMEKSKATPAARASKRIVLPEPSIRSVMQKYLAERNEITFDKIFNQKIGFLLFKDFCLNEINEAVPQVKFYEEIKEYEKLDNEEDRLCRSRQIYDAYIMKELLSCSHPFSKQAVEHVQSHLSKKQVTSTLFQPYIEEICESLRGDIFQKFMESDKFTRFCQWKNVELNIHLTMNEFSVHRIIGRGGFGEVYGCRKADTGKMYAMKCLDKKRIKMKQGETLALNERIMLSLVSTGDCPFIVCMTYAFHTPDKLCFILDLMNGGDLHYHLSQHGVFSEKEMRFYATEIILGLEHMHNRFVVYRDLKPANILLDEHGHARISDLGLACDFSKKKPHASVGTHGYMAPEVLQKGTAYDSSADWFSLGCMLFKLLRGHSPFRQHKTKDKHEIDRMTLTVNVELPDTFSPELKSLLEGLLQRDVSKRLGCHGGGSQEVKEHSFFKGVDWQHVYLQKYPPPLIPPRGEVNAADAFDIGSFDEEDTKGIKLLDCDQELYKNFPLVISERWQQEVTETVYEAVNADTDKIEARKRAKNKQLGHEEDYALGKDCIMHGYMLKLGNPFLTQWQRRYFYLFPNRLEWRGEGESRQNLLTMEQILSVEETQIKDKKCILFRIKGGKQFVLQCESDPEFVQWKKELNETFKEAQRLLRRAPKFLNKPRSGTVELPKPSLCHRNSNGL
Chain of UniProt Q7L9L4 (Q7L9L4 whole entry): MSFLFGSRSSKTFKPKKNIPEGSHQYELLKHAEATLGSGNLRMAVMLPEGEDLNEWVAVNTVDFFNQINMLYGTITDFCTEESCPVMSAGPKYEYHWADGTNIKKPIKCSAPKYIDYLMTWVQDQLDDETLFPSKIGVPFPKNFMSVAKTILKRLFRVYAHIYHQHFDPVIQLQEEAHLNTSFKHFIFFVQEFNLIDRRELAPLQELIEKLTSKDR
Chain of UniProt P26639 (P26639 whole entry): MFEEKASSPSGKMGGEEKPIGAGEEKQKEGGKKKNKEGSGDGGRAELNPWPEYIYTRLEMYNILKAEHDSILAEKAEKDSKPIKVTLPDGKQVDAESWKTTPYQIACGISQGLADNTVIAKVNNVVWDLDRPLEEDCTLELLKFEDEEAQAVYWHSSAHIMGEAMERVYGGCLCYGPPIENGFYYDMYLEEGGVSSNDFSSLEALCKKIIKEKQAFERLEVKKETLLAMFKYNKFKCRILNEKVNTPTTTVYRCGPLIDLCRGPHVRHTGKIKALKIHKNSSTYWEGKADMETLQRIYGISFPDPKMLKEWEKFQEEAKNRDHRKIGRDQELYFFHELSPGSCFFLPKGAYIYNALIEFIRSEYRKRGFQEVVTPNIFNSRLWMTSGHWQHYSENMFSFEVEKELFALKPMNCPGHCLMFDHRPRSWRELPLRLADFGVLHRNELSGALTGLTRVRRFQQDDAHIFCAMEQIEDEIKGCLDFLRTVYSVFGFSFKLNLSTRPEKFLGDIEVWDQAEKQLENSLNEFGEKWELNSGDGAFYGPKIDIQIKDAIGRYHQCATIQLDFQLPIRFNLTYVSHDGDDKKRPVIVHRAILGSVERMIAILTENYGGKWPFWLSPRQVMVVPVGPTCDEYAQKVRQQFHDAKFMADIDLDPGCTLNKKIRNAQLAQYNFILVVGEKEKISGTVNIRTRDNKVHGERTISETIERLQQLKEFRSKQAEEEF
Chain of UniProt Q7Z3D6 (Q7Z3D6 whole entry): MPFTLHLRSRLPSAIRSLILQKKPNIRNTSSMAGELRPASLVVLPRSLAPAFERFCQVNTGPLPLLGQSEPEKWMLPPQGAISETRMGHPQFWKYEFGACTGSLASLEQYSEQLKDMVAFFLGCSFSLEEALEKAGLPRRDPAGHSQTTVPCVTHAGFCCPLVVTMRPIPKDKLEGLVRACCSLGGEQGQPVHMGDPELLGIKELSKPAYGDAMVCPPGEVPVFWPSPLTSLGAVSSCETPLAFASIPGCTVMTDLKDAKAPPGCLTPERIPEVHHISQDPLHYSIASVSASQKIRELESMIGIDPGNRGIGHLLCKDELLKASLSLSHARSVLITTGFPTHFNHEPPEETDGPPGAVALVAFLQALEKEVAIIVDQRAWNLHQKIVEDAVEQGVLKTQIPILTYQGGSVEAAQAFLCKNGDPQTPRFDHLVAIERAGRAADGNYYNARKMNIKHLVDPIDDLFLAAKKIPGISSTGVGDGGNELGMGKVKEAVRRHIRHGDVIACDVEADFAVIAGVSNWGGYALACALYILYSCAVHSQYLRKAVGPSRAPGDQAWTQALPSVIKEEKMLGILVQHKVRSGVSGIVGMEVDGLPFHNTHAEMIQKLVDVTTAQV
Chain of UniProt O43598 (O43598 whole entry): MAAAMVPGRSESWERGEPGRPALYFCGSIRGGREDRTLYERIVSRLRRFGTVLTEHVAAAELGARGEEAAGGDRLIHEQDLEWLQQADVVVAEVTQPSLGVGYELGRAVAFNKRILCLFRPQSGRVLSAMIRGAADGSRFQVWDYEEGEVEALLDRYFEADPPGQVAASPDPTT
Chain of UniProt O95319 (O95319 whole entry): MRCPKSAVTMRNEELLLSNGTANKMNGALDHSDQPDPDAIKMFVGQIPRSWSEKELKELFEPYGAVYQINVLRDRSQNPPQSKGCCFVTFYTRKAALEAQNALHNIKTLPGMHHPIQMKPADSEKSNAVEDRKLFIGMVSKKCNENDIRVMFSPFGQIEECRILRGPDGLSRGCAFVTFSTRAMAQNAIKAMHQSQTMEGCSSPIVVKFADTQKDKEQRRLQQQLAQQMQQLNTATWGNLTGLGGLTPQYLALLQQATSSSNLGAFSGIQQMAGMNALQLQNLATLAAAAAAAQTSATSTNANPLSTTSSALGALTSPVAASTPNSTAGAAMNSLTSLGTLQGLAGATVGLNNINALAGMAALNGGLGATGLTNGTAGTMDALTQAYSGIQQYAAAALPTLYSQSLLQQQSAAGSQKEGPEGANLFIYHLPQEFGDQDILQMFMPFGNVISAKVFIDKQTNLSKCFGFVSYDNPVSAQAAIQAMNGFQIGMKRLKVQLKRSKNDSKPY
Chain of UniProt O14757 (O14757 whole entry): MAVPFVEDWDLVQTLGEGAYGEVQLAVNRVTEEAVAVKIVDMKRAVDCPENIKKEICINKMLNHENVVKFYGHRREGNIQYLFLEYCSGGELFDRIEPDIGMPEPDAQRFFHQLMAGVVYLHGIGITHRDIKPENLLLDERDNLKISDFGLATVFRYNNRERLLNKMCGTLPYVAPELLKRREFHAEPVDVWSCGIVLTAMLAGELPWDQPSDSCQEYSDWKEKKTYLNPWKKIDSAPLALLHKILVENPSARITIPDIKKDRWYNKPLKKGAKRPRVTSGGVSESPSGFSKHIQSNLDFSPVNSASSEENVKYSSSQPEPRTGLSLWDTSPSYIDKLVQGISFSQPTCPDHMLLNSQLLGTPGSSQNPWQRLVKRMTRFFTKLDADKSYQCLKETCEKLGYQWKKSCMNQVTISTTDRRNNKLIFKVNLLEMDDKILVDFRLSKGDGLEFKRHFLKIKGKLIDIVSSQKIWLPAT
Chain of UniProt P84095 (P84095 whole entry): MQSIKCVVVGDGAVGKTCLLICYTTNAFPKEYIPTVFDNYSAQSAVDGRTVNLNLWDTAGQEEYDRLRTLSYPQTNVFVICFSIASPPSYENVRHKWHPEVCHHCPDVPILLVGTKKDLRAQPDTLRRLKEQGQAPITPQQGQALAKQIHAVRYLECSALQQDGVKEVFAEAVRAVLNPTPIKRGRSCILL
Chain of UniProt P49841 (P49841 whole entry, looked up): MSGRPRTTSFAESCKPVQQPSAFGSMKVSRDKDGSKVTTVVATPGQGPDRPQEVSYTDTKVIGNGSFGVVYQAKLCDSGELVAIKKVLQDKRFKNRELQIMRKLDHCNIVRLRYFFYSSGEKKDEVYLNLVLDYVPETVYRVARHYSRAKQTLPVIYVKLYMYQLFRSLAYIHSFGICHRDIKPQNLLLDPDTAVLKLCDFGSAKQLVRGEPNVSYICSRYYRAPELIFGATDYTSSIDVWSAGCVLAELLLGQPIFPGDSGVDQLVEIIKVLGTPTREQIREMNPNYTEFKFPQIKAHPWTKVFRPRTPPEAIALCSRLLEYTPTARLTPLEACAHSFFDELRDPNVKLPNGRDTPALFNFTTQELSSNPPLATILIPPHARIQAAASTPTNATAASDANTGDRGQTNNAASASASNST
Chain of UniProt P24539 (P24539 whole entry): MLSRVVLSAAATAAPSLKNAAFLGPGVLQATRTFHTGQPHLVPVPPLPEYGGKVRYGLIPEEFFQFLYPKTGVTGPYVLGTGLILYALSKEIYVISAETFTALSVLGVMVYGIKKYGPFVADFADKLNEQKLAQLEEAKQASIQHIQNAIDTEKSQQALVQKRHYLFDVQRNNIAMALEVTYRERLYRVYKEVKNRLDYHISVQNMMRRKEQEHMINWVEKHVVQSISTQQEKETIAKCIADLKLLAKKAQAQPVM
Chain of UniProt P45984 (P45984 whole entry, looked up): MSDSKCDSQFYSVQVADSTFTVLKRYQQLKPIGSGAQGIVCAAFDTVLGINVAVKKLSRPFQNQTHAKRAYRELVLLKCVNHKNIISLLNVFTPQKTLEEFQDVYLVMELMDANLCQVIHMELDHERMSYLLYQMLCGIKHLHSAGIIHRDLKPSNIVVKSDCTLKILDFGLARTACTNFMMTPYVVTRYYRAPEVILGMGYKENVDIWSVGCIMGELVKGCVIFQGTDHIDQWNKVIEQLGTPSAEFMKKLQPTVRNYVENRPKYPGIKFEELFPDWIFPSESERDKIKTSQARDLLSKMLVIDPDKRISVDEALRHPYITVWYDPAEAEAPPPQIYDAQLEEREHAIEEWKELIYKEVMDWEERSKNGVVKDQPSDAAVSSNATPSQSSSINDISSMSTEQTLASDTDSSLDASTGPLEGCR
Chain of UniProt P62308 (P62308 whole entry): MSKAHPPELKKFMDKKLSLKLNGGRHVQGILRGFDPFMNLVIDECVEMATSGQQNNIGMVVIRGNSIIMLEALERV
Chain of UniProt P62318 (P62318 whole entry): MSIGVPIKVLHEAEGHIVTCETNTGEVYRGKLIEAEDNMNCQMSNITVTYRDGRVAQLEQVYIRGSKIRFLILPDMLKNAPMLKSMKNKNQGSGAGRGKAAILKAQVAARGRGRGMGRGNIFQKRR

In general, pEC50 refers to the negative decadic logarithm of the EC50, by convention in mol/L. On to “UBLCP1 (effect direction: destabilized) (UniProt Q8WVY7)”, for which the pEC50 was determined as 2.88.

Consider “UCHL5 (effect direction: stabilized) (UniProt Q9Y5K5)”, for which the pEC50 was below 2.7. In the case of “UGDH (effect direction: stabilized) (UniProt O60701)”, the pEC50 stood at 3.11. Then “UMPS (effect direction: stabilized) (UniProt P11172)”, with below 2.7. As for “USO1 (effect direction: stabilized) (UniProt O60763)”, the negative logarithm of the EC50 (pEC50) is below 2.7. Then “USP5 (effect direction: stabilized) (UniProt P45974)”, with below 2.7; and “USP14 (effect direction: stabilized) (UniProt P54578)”, with below 2.7. In the case of “USP47 (effect direction: stabilized) (UniProt Q96K76)”, the pEC50 was below 2.7.

Take “UTP15 (effect direction: destabilized) (UniProt Q8TED0)”: the pEC50 was 2.92. On to “UniProt O00487 (effect direction: stabilized)”, for which the pEC50 came out at 4.28. As to “UniProt O14757 (effect direction: stabilized)”, the pEC50 was 3.26. In the case of “UniProt O14920 (effect direction: stabilized)”, the pEC50 came to 3.5. As for “UniProt O14965 (effect direction: stabilized)”, the pEC50 turned out to be 3.25.

As to “UniProt O15530 (effect direction: stabilized)”, the pEC50 turned out to be 3.24. Regarding “UniProt O43314 (effect direction: stabilized)”, the pEC50 was 4.16. As to “UniProt O43598 (effect direction: stabilized)”, the negative logarithm of the EC50 (pEC50) is 3.25. On to “UniProt O43847 (effect direction: stabilized)”, for which the pEC50 is below 2.7. For “UniProt O43929 (effect direction: stabilized)”, the pEC50 is 3.63. Regarding “UniProt O60524 (effect direction: destabilized)”, the negative logarithm of the EC50 (pEC50) worked out at 3.06. For the target “UniProt O60610 (effect direction: stabilized)”, the pEC50 is below 2.7. On to “UniProt O75521 (effect direction: stabilized)”, for which the pEC50 is below 2.7. Consider “UniProt O94826 (effect direction: stabilized)”, for which the pEC50 came to 3.14.

As for “UniProt O95071 (effect direction: stabilized)”, the pEC50 stood at 3.27. “UniProt O95319 (effect direction: stabilized)”: the pEC50 is below 2.7. Take “UniProt O96017 (effect direction: stabilized)”: the pEC50 came out at 3.33.

As to “UniProt P0C0S5 (effect direction: stabilized)”, the pEC50 is 2.96. Next, “UniProt P0C0S8 (effect direction: stabilized)”: 2.92. As for “UniProt P0DMV8 (effect direction: stabilized)”, the pEC50 was determined as 3.72.

As to “UniProt P04350 (effect direction: stabilized)”, the pEC50 is 3.07. Turning to “UniProt P06493 (effect direction: stabilized)”, the pEC50 was determined as 2.93. For “UniProt P14618 (effect direction: destabilized)”, the pEC50 was 2.87. For “UniProt P23443 (effect direction: stabilized)”, the pEC50 was 3.7.

On to “UniProt P24539 (effect direction: stabilized)”, for which the pEC50 is 4.02.

Consider “UniProt P24928 (effect direction: destabilized)”, for which the negative-log EC50 (pEC50) was found to be 3.32. In the case of “UniProt P25098 (effect direction: stabilized)”, the pEC50 is 3.38. In the case of “UniProt P26639 (effect direction: stabilized)”, the pEC50 was below 2.7. Next, “UniProt P27361 (effect direction: stabilized)”: 3.54; “UniProt P28482 (effect direction: stabilized)”: 3.16; “UniProt P35626 (effect direction: stabilized)”: 3.31. Take “UniProt P36507 (effect direction: stabilized)”: the pEC50 was 3.55.

Turning to “UniProt P42285 (effect direction: stabilized)”, the negative logarithm of the EC50 (pEC50) was below 2.7. Regarding “UniProt P45984 (effect direction: stabilized)”, the pEC50 stood at 3.14. Next, “UniProt P48729 (effect direction: stabilized)”: 3.3; “UniProt P49591 (effect direction: stabilized)”: below 2.7.

Regarding “UniProt P49841 (effect direction: stabilized)”, the pEC50 came out at 3.37. As for “UniProt P51812 (effect direction: stabilized)”, the pEC50 was found to be 3.89. With “UniProt P52434 (effect direction: stabilized)”, the pEC50 is below 2.7. Next, “UniProt P60842 (effect direction: stabilized)”: 3.47; “UniProt P60891 (effect direction: stabilized)”: 3; “UniProt P61163 (effect direction: stabilized)”: 3.1.

As for “UniProt P61254 (effect direction: destabilized)”, the pEC50 is below 2.7. Next, “UniProt P61353 (effect direction: destabilized)”: above 5.3; “UniProt P61513 (effect direction: destabilized)”: 3.27. Take “UniProt P61956 (effect direction: destabilized)”: the pEC50 turned out to be 3.07. Then “UniProt P62081 (effect direction: destabilized)”, with 3.68; and “UniProt P62191 (effect direction: stabilized)”, with 4.55.

With “UniProt P62195 (effect direction: stabilized)”, the pEC50 worked out at 4.18.

As for “UniProt P62241 (effect direction: destabilized)”, the pEC50 turned out to be 3.14. For “UniProt P62263 (effect direction: destabilized)”, the pEC50 worked out at 2.97.

As for “UniProt P62266 (effect direction: destabilized)”, the pEC50 stood at 3.33. “UniProt P62269 (effect direction: destabilized)”: the pEC50 is below 2.7. In the case of “UniProt P62277 (effect direction: destabilized)”, the pEC50 was determined as 3.88. Turning to “UniProt P62280 (effect direction: destabilized)”, the negative-log EC50 (pEC50) was found to be 4.05. Consider “UniProt P62308 (effect direction: destabilized)”, for which the pEC50 amounted to 2.78. With “UniProt P62316 (effect direction: destabilized)”, the pEC50 was below 2.7. In the case of “UniProt P62318 (effect direction: destabilized)”, the pEC50 is below 2.7. Next, “UniProt P62495 (effect direction: stabilized)”: below 2.7; “UniProt P62753 (effect direction: destabilized)”: 3.15; “UniProt P62826 (effect direction: destabilized)”: 3.01. Turning to “UniProt P62841 (effect direction: destabilized)”, the pEC50 stood at 2.99. Next, “UniProt P62847 (effect direction: destabilized)”: 4.16. Regarding “UniProt P62899 (effect direction: destabilized)”, the pEC50 was determined as 3. Take “UniProt P68400 (effect direction: stabilized)”: the pEC50 is 4.09.

As for “UniProt P68431 (effect direction: stabilized)”, the pEC50 came out at 2.79.

On to “UniProt P78356 (effect direction: stabilized)”, for which the pEC50 was 2.83.

As for “UniProt P83731 (effect direction: destabilized)”, the pEC50 was determined as 3.11. As for “UniProt P84085 (effect direction: destabilized)”, the pEC50 was below 2.7.

On to “UniProt P84095 (effect direction: destabilized)”, for which the pEC50 was 3.01.

Regarding “UniProt P84098 (effect direction: destabilized)”, the pEC50 stood at 2.89. Regarding “UniProt Q5JUR7 (effect direction: stabilized)”, the pEC50 worked out at 3.36. As to “UniProt Q5VZE5 (effect direction: stabilized)”, the pEC50 was found to be 2.92. Take “UniProt Q6ZUM4 (effect direction: stabilized)”: the pEC50 was 3.74.

Take “UniProt Q7L9L4 (effect direction: stabilized)”: the pEC50 worked out at 2.98. As for “UniProt Q7Z2Z2 (effect direction: stabilized)”, the pEC50 stood at 2.78. Turning to “UniProt Q7Z3D6 (effect direction: destabilized)”, the pEC50 was found to be 2.79. Consider “UniProt Q8N1G2 (effect direction: stabilized)”, for which the pEC50 is 3.14.

For “UniProt Q8N2M8 (effect direction: stabilized)”, the pEC50 was below 2.7. For “UniProt Q8N4C8 (effect direction: stabilized)”, the negative-log EC50 (pEC50) was determined as 3.74.

Values taken from the supplement of paper PMC6411743.
